Results: article doi:10.1101/2025.02.01.636040v1 (bioRxiv, 2025)

Tests used:
CHIKVP [1] = target: T1, CHIKVP (Chikungunya virus, UniProt Q8JUX6); conditions: 500 μM peptide, 5 μM CHIKVP, 1 hour, LC-MS extracted ion chromatograms
CHIKVP [2] = target: T1, CHIKVP; conditions: 500 µM of each peptide mixed, 5 µM CHIKVP, 10 minutes, LC-MS/UV peak area
CHIKVP [3] = target: T1, CHIKVP; conditions: 300 µM CHIKVP, 1.5 mM peptide, 10 min, 298 K, 75 mM deuterated Tris pH 7.5

T1 sequence (Q8JUX6 1004-1327 limits assumed): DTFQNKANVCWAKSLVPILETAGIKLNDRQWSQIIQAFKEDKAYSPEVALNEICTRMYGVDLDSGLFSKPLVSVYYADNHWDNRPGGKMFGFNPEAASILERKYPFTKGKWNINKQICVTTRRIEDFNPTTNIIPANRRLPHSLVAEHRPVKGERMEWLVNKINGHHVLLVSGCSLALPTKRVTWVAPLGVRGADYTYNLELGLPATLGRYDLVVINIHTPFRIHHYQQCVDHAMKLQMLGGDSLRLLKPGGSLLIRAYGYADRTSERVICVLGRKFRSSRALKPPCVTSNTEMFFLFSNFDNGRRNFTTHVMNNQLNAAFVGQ

Substance | cleavage by CHIKVP by LC-MS (CHIKVP [1]) | decrease in peak area (CHIKVP [2]) | binding to CHIKVP from 1H-NMR line broadening (CHIKVP [3])
VEQLEDRAGA/GIIGGSRR | effectively cleaved | 52.7% | 
DELRLDRAGG/YIFSS | effectively cleaved | 54.1% | more potent binder of CHIKVP
